Measurements: US11505548B2, “Heterocyclic compounds and their use for treatment of helminthic infections and diseases” (Celgene Corporation, priority 2019, dated 2022)

Test system: Onchocerca gutturosa Adult Male Worms
Assay: Onchocerciasis in vitro screening model, worm motility score
Type: cell-based
Details: in vitro; Onchocerca gutturosa adult male worms; class A/B/C; read-out: O. gutturosa activity level (IC50 or MED)

SMILES	IC50 [nM]
Cc1cc(C#N)cnc1Nc1nc(-c2ccc(OC(C)C)cn2)ns1 [Compound 231, 6-(3-(5-isoprop-oxypyridin-2-yl)-1,2,4-thiadiazol-5-ylamino)-5-methyl-nicotinonitrile]	200 to 500
CC(C)Oc1ccnc(-c2nnc(Nc3ccc(C(C)C)cn3)s2)c1 [Compound 232, 5-(4-isopropoxy-pyridin-2-yl)-N-(5-isopropyl-pyridin-2-yl)-1,3,4-thiadiazol-2-amine]	500 to 5000
COc1ccc(Nc2nnc(-c3cc(OC4CCCCC4)ccn3)s2)nc1 [Compound 233, 5-(4-(cyclo-hexyloxy)pyridin-2-y1)-N-(5-methoxypyridin-2-yl)-1,3,4-thiadiazol-2-amine]	< 200
c1ccc(-c2ccnc(Nc3nnc(-c4ccccn4)o3)c2)cc1 [Compound 235, N-(4-phenyl-pyridin-2-yl)-5-(pyridin-2-yl)-1,3,4-oxadiazol-2-amine]	500 to 5000
Cc1ccnc(Nc2nnc(-c3ncccc3C)o2)c1 [Compound 236, 5-(3-methyl-pyridin-2-yl)-N-(4-methy-lpyridin-2-yl)-1,3,4-oxadiazol-2-amine]	500 to 5000
c1ccc(-c2ccnc(Nc3nc(-c4ccccn4)ns3)c2)cc1 [Compound 237, N-(4-phenyl-pyridin-2-yl)-3-(pyridin-2-yl)-1,2,4-thiadiazol-5-amine]	500 to 5000
Cc1ccnc(Nc2nc(-c3ncccc3C)ns2)c1 [Compound 238, 3-(3-methyl-pyridin-2-yl)-N-(4-methyl-pyridin-2-yl)-1,2,4-thiadiazol-5-amine]	< 200
c1ccc(-c2ccnc(Nc3nnc(-c4ccccn4)s3)c2)cc1 [Compound 240, N-(4-pheny-lpyridin-2-yl)-5-(pyridin-2-yl)-1,3,4-thiadiazol-2-amine]	500 to 5000
c1ccc(-c2ccnc(Nc3nnc(-c4ccccn4)[nH]3)c2)cc1 [Compound 241, 4-phenyl-N-(5-(pyridin-2-yl)-4H-1,2,4-triazol-3-yl) pyridin-2-amine]	< 200
Cc1ccnc(Nc2nnc(-c3ncccc3C)[nH]2)c1 [Compound 242, 4-methyl-N-(5-(3-methyl-pyridin-2-yl)-4H-1,2,4-triazol-3-yl)pyridin-2-amine]	500 to 5000
COc1ccc(-c2nnc(Nc3cc(OC(C)C)ccn3)s2)nc1 [Compound 243, N-(4-isoprop-oxypyridin-2-yl)-5-(5-methoxy-pyridin-2-yl)-1,3,4-thiadiazol-2-amine]	500 to 5000
Cc1ccnc(Nc2nnc(-c3ncccc3C)s2)c1 [Compound 244, 5-(3-methyl-pyridin-2-yl)-N-(4-methyl-pyridin-2-yl)-1,3,4-thiadiazol-2-amine]	500 to 5000
c1ccc(-c2ccnc(Nc3nc(-c4ccccn4)no3)c2)cc1 [Compound 246, N-(4-phenyl-pyridin-2-yl)-3-(pyridin-2-yl)-1,2,4-oxadiazol-5-amine]	500 to 5000
CC(=O)N(C)c1cc(C(F)(F)F)cnc1Nc1nc(-c2ccc(OC(C)C)cn2)ns1 [Compound 247, N-(2-(3-(5-isopropoxy-pyridin-2-yl)-1,2,4-thiadiazol-5-ylamino)-5-(trifluoro-methyl)pyridin-3-yl)-N-methylacetamide]	< 200
CC(C)Oc1ccc(-c2nsc(Nc3ncc(C(F)(F)F)cc3N(C)C(=O)C3CC3)n2)nc1 [Compound 248, N-(2-(3-(5-isopropoxy-pyridin-2-yl)-1,2,4-thiadiazol-5-ylamino)-5-(trifluoro-methyl)pyridin-3-yl)-N-methylcyclo-propanecarbox-amide]	500 to 5000
CC(=O)N(C)c1cc(C(F)(F)F)cnc1Nc1nc(-c2cc3c(cn2)N(C)CC3)ns1 [Compound 249, N-methyl-N-(2-(3-(1-methyl-2,3-dihydro-1H-pyrrolo[2,3-c]pyridin-5-yl)-1,2,4-thiadiazol-5-ylamino)-5-(trifluoromethyl)pyridin-3-yl)acetamide]	200 to 500
CC(C)Oc1cnc(-c2nsc(Nc3ncccc3C(=O)N3CCCC3)n2)cc1C(F)(F)F [Compound 251, (2-(3-(5-isopropoxy-4-(trifluoromethyl)pyridin-2-yl)-1,2,4-thiadiazol-5-ylamino)pyridin-3-yl) (pyrrolidin-1-yl)methanone]	500 to 5000
Cc1cnc(Nc2nc(-c3cc(C(N)=O)c(OC(C)C)cn3)ns2)c(C(F)(F)F)c1 [Compound 252, 5-isopropoxy-2-(5-(5-methyl-3-(trifluoro-methyl)pyridin-2-ylamino)-1,2,4-thiadiazol-3-yl)isonico-tinamide]	500 to 5000
COc1cnc(Nc2nc(-c3cc(C(N)=O)c(OC(C)C)cn3)ns2)c(C(F)(F)F)c1 [Compound 253, 5-isopropoxy-2-(5-(5-methoxy-3-(trifluoro-methyl)pyridin-2-ylamino)-1,2,4-thiadiazol-3-yl)isonico-tinamide]	500 to 5000
Cc1cnc(Nc2nc(-c3cc(C(=O)N(C)C)c(OC(C)C)cn3)ns2)c(C(F)(F)F)c1 [Compound 254, 5-isopropoxy-N,N-dimethyl-2-(5-(5-methyl-3-(trifluoromethyl)pyridin-2-ylamino)-1,2,4-thiadiazol-3-yl)isonico-tinamide]	500 to 5000
COc1ccc(-c2nnc(Nc3cc(OC(C)C)ccn3)o2)nc1 [Compound 255, N-(4-isoprop-oxypyridin-2-yl)-5-(5-methoxy-pyridin-2-yl)-1,3,4-oxadiazol-2-amine]	500 to 5000
COc1ccc(-c2nnc(Nc3cc(OC(C)C)ccn3)[nH]2)nc1 [Compound 257, 4-isopropoxy-N-(5-(5-methoxy-pyridin-2-yl)-4H-1,2,4-triazol-3-yl)pyridin-2-amine]	500 to 5000
Cc1cccnc1Nc1nnc(-c2ccc(OC3CCOCC3)cn2)[nH]1 [Compound 258, 3-methyl-N-(5-(5-(tetrahydro-2H-pyran-4-yloxy)pyridin-2-yl)-4H-1,2,4-triazol-3-yl) pyridin-2-amine]	< 200
CC(C)Oc1cnc(-c2nsc(Nc3ncccc3C(=O)N(C)C)n2)cc1C(F)F [Compound 260, 2-(3-(4-(difluoro-methyl)-5-isopropoxy-pyridin-2-yl)-1,2,4-thiadiazol-5-ylamino)-N,N-dimethyl-nicotinamide]	500 to 5000
CC(=O)N(C)c1cccnc1Nc1nc(-c2cc(C(F)F)c(OC(C)C)cn2)ns1 [Compound 261, N-(2-(3-(4-(difluoromethyl)-5-isopropoxy-pyridin-2-yl)-1,2,4-thiadiazol-5-ylamino)pyridin-3-yl)-N-methylacetamide]	500 to 5000
CC(C)Oc1ccc(-c2nsc(Nc3ncccc3C(=O)N(C)C3CC3)n2)nc1 [Compound 262, N-cyclo-propyl-2-(3-(5-isopropoxy-pyridin-2-yl)-1,2,4-thiadiazol-5-ylamino)-N-methyl-nicotinamide]	500 to 5000
CC(C)Oc1cnc(-c2nsc(Nc3ncccc3C(=O)N(C)C3CC3)n2)cc1C(F)(F)F [Compound 263, N-cyclo-propyl-2-(3-(5-isopropoxy-4-(trifluoro-methyl)pyridin-2-yl)-1,2,4-thiadiazol-5-ylamino)-N-methyl-nicotinamide]	500 to 5000
COc1cnc(Nc2nc(-c3cc(C(=O)N(C)C)c(OC(C)C)cn3)ns2)c(C(F)(F)F)c1 [Compound 264, 5-isopropoxy-2-(5-(5-methoxy-3-(trifluoro-methyl)pyridin-2-ylamino)-1,2,4-thiadiazol-3-yl)-N,N-dimethyliso-nicotinamide]	500 to 5000
